Tests used:
[1] = Sensory evaluation of aqueous solution II containing (E)-2-octenal 10 ppb: off-flavor intensity and masking component intensity; conditions: average panel score
Description: (§1) In ion-exchanged water, each degradation component was added to achieve the concentrations listed in Table 1, and aqueous solutions I to VI containing these degradation components were prepared.
(§2) For the aforementioned aqueous solutions containing degradation components, nootkatone was added at the concentrations listed in Table 2 to confirm the intensity of the off-flavor (masking effect) in each sample and the intensity of the masking component itself (the impact on the flavor of the food and/or beverage itself).
(§3) The test was conducted as follows. Eight experienced panelists were selected to conduct a sensory evaluation. The intensity of the off-flavor of the aqueous solution containing the degradation components derived from unsaturated fatty acids, without added masking components, was set as “Evaluation: 4.” The ion-exchanged water free of any degradation components was set as “Evaluation: 0.” The intensity of the off-flavor (masking effect) of each sample was then relatively evaluated according to the following evaluation criteria.
(§4) • Off-flavor is strongly sensed: 4 points • Off-flavor is sensed: 3 points • Off-flavor is slightly sensed: 2 points • Off-flavor is barely sensed: 1 point • Off-flavor is not sensed at all: 0 points
(§5) Also, the intensity of the masking components (impact on the flavor of the food and/or beverage itself) was absolutely evaluated according to the following evaluation criteria.
(§6) • Masking component is strongly sensed: 4 points • Masking component is sensed: 3 points • Masking component is slightly sensed: 2 points • Masking component is barely sensed: 1 point • Masking component is not sensed at all: 0 points

[2] = Sensory evaluation of aqueous solution V containing 1-octen-3-ol 10 ppb: off-flavor intensity and masking component intensity; conditions: average panel score
Description: as §1, §2, §3, §4, §5, §6

[3] = Sensory evaluation of aqueous solution IV containing 1,5-octadien-3-one 100 ppt: off-flavor intensity and masking component intensity; conditions: aqueous solution IV, average panel score
Description: as §1, §2, §3, §4, §5, §6

[4] = Overall conclusion of the sensory evaluation across aqueous solutions I to VI
Description: as §1, §2, §3, §4, §5, §6

[5] = Sensory evaluation of aqueous solution I containing (E)-2-nonenal 1 ppb: off-flavor intensity and masking component intensity; conditions: average panel score
Description: as §1, §2, §3, §4, §5, §6

[6] = Sensory evaluation of aqueous solution VI containing 1,5-octadien-3-ol 10 ppb: off-flavor intensity and masking component intensity; conditions: aqueous solution VI, average panel score
Description: as §1, §2, §3, §4, §5, §6

[7] = Sensory evaluation of aqueous solution III containing 1-octen-3-one 1 ppb: off-flavor intensity and masking component intensity; conditions: average panel score
Description: as §1, §2, §3, §4, §5, §6

CC1CCC(C(C)C)C(OCCO)C1 (centres unmarked) [2-menthoxyethanol]
Masking Component Intensity ([1]; 1 ppb added): 0.8
Off-Flavor Intensity ([1]; 1 ppb added): 3.3
Masking Component Intensity ([1]; 1 ppm added): 2.0
Off-Flavor Intensity ([1]; 1 ppm added): 2.4
Masking Component Intensity ([1]; 10 ppb added): 1.1
Off-Flavor Intensity ([1]; 10 ppb added): 2.9
Masking Component Intensity ([1]; 10 ppm added): 2.6
Off-Flavor Intensity ([1]; 10 ppm added): 2.0
Masking Component Intensity ([1]; 50 ppm added): 3.4
Off-Flavor Intensity ([1]; 50 ppm added): 1.5
Masking Component Intensity ([1]; 100 ppb added): 1.6
Off-Flavor Intensity ([1]; 100 ppb added): 2.5
Masking Component Intensity ([1]; 100 ppm added): 3.8
Off-Flavor Intensity ([1]; 100 ppm added): 1.3
Masking Component Intensity ([1]; 100 ppt added): 0.5
Off-Flavor Intensity ([1]; 100 ppt added): 3.4
Masking Component Intensity ([2]; 1 ppb added): 0.4
Off-Flavor Intensity ([2]; 1 ppb added): 3.1
Masking Component Intensity ([2]; 1 ppm added): 1.8
Off-Flavor Intensity ([2]; 1 ppm added): 2.3
Masking Component Intensity ([2]; 10 ppb added): 0.5
Off-Flavor Intensity ([2]; 10 ppb added): 2.6
Masking Component Intensity ([2]; 10 ppm added): 2.6
Off-Flavor Intensity ([2]; 10 ppm added): 2.3
Masking Component Intensity ([2]; 50 ppm added): 3.5
Off-Flavor Intensity ([2]; 50 ppm added): 1.8
Masking Component Intensity ([2]; 100 ppb added): 1.4
Off-Flavor Intensity ([2]; 100 ppb added): 2.5
Masking Component Intensity ([2]; 100 ppm added): 3.8
Off-Flavor Intensity ([2]; 100 ppm added): 1.6
Masking Component Intensity ([2]; 100 ppt added): 0.1
Off-Flavor Intensity ([2]; 100 ppt added): 3.3
Masking Component Intensity ([3]; 1 ppb added): 0.5
Off-Flavor Intensity ([3]; 1 ppb added): 3.4
Masking Component Intensity ([3]; 1 ppm added): 2.3
Off-Flavor Intensity ([3]; 1 ppm added): 2.4
Masking Component Intensity ([3]; 10 ppb added): 1.0
Off-Flavor Intensity ([3]; 10 ppb added): 3.0
Masking Component Intensity ([3]; 10 ppm added): 2.6
Off-Flavor Intensity ([3]; 10 ppm added): 2.3
Masking Component Intensity ([3]; 50 ppm added): 3.4
Off-Flavor Intensity ([3]; 50 ppm added): 1.9
Masking Component Intensity ([3]; 100 ppb added): 1.6
Off-Flavor Intensity ([3]; 100 ppb added): 2.5
Masking Component Intensity ([3]; 100 ppm added): 3.9
Off-Flavor Intensity ([3]; 100 ppm added): 1.8
Masking Component Intensity ([3]; 100 ppt added): 0.1
Off-Flavor Intensity ([3]; 100 ppt added): 3.5
concentration that masks the off-flavor and does not affect the flavor of the food and/or beverage itself, lower limit [4]: ≥ 10 ppb
concentration that masks the off-flavor and does not affect the flavor of the food and/or beverage itself, upper limit [4]: ≤ 10 ppm
Masking Component Intensity ([5]; 1 ppb added): 0.5
Off-Flavor Intensity ([5]; 1 ppb added): 3.4
Masking Component Intensity ([5]; 1 ppm added): 1.6
Off-Flavor Intensity ([5]; 1 ppm added): 2.5
Masking Component Intensity ([5]; 10 ppb added): 0.8
Off-Flavor Intensity ([5]; 10 ppb added): 3.0
Masking Component Intensity ([5]; 10 ppm added): 2.3
Off-Flavor Intensity ([5]; 10 ppm added): 1.8
Masking Component Intensity ([5]; 50 ppm added): 3.5
Off-Flavor Intensity ([5]; 50 ppm added): 1.4
Masking Component Intensity ([5]; 100 ppb added): 1.3
Off-Flavor Intensity ([5]; 100 ppb added): 2.8
Masking Component Intensity ([5]; 100 ppm added): 3.8
Off-Flavor Intensity ([5]; 100 ppm added): 1.0
Masking Component Intensity ([5]; 100 ppt added): 0.3
Off-Flavor Intensity ([5]; 100 ppt added): 3.8
Masking Component Intensity ([6]; 1 ppb added): 0.6
Off-Flavor Intensity ([6]; 1 ppb added): 3.3
Masking Component Intensity ([6]; 1 ppm added): 2.0
Off-Flavor Intensity ([6]; 1 ppm added): 2.0
Masking Component Intensity ([6]; 10 ppb added): 1.0
Off-Flavor Intensity ([6]; 10 ppb added): 2.8
Masking Component Intensity ([6]; 10 ppm added): 2.5
Off-Flavor Intensity ([6]; 10 ppm added): 1.9
Masking Component Intensity ([6]; 50 ppm added): 3.8
Off-Flavor Intensity ([6]; 50 ppm added): 1.5
Masking Component Intensity ([6]; 100 ppb added): 1.8
Off-Flavor Intensity ([6]; 100 ppb added): 2.6
Masking Component Intensity ([6]; 100 ppm added): 4.0
Off-Flavor Intensity ([6]; 100 ppm added): 1.3
Masking Component Intensity ([6]; 100 ppt added): 0.3
Off-Flavor Intensity ([6]; 100 ppt added): 3.4
Masking Component Intensity ([7]; 1 ppb added): 0.8
Off-Flavor Intensity ([7]; 1 ppb added): 3.1
Masking Component Intensity ([7]; 1 ppm added): 1.9
Off-Flavor Intensity ([7]; 1 ppm added): 2.4
Masking Component Intensity ([7]; 10 ppb added): 1.1
Off-Flavor Intensity ([7]; 10 ppb added): 2.9
Masking Component Intensity ([7]; 10 ppm added): 2.5
Off-Flavor Intensity ([7]; 10 ppm added): 2.3
Masking Component Intensity ([7]; 50 ppm added): 3.8
Off-Flavor Intensity ([7]; 50 ppm added): 2.0
Masking Component Intensity ([7]; 100 ppb added): 1.8
Off-Flavor Intensity ([7]; 100 ppb added): 2.5
Masking Component Intensity ([7]; 100 ppm added): 3.9
Off-Flavor Intensity ([7]; 100 ppm added): 2.0
Masking Component Intensity ([7]; 100 ppt added): 0.6
Off-Flavor Intensity ([7]; 100 ppt added): 3.3

— patent US20250176599A1, “FLAVOR COMPOSITION AND FOOD AND BEVERAGE” (TAKASAGO INTERNATIONAL CORPORATION, priority 2021, published 2025)
